From PubChem BioAssay AID1845197 (Molecular Pharmacology Branch, DTP, NCI, 2023)

System: 349418-098-R tumor spheroid viability
Assay: Anticancer human tumor 349418-098-R patient-derived lung adenocarcinoma cell line growth inhibition
Settings: spheroids with HUVEC and MSC; for viability, T/C: stronger effect = lower value
How it was run: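 Single agents and combinations were tested on spheroids built from tumor cells plus HUVEC and hMSC, at half-log dilutions starting at or near clinical Cmax, else 10 microM; final DMSO 0.25% (v/v).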
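Also: spheroids exposed to compound for 7 days before measurement.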
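For viability, T/C in this document: percent of vehicle control viability with 100% = DMSO-treated spheroids.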

Molecule `[2H]c1nc(C)nc([2H])c1-c1cc(NC[C@@H](C)c2cccc3c(C(=O)NC)ccnc23)ncn1` + CC[C@@]1(O)C(=O)OCc2c1cc1n(c2=O)Cc2cc3c(CN(C)C)c(O)ccc3nc2-1 has an IC50 (curve of first compound, second compound 0.003 µM) of over 10 µM, an IC50 (curve of first compound, second compound 0.00949 µM) of over 10 µM and an IC50 (curve of first compound, second compound 0.03 µM) of 7.51 µM. For the same molecule, the IC50 (curve of first compound, second compound 0.0949 µM) was under 0.0316 µM, the IC50 (curve of first compound, second compound 0.3 µM) was under 0.0316 µM and the viability, T/C (second compound 0.003 µM, first compound 0.0316 µM) was 96.3%. For the same molecule, the viability, T/C (second compound 0.003 µM, first compound 0.1 µM) was 103%, the viability, T/C (second compound 0.003 µM, first compound 0.316 µM) was 97.9% and the viability, T/C (second compound 0.003 µM, first compound 1 µM) was 105%. The viability, T/C (second compound 0.003 µM, first compound 3.16 µM) was 102%, the viability, T/C (second compound 0.003 µM, first compound 10 µM) was 102% and the viability, T/C (second compound 0.00949 µM, first compound 0.0316 µM) was 93.7%. For the same molecule, the viability, T/C (second compound 0.00949 µM, first compound 0.1 µM) was 101%, the viability, T/C (second compound 0.00949 µM, first compound 0.316 µM) was 98.5% and the viability, T/C (second compound 0.00949 µM, first compound 1 µM) was 100%. The viability, T/C (second compound 0.00949 µM, first compound 3.16 µM) was 102%, the viability, T/C (second compound 0.00949 µM, first compound 10 µM) was 97.2% and the viability, T/C (second compound 0.03 µM, first compound 0.0316 µM) was 78.9%. The viability, T/C (second compound 0.03 µM, first compound 0.1 µM) was 67.9%, the viability, T/C (second compound 0.03 µM, first compound 0.316 µM) was 75.5% and the viability, T/C (second compound 0.03 µM, first compound 1 µM) was 71.1%. It also gave a viability, T/C (second compound 0.03 µM, first compound 3.16 µM) of 53.9%, a viability, T/C (second compound 0.03 µM, first compound 10 µM) of 48.7% and a viability, T/C (second compound 0.0949 µM, first compound 0.0316 µM) of 13.9%. It also gave a viability, T/C (second compound 0.0949 µM, first compound 0.1 µM) of 15.4%, a viability, T/C (second compound 0.0949 µM, first compound 0.316 µM) of 11.2% and a viability, T/C (second compound 0.0949 µM, first compound 1 µM) of 13.1%. For the same molecule, the viability, T/C (second compound 0.0949 µM, first compound 3.16 µM) was 7.36%, the viability, T/C (second compound 0.0949 µM, first compound 10 µM) was 6.4% and the viability, T/C (second compound 0.3 µM, first compound 0.0316 µM) was 4.73%. It also gave a viability, T/C (second compound 0.3 µM, first compound 0.1 µM) of 5.56%, a viability, T/C (second compound 0.3 µM, first compound 0.316 µM) of 4.91% and a viability, T/C (second compound 0.3 µM, first compound 1 µM) of 4.06%. For the same molecule, the viability, T/C (second compound 0.3 µM, first compound 3.16 µM) was 4.8% and the viability, T/C (second compound 0.3 µM, first compound 10 µM) was 3.56%.
In the case of `Cn1nnc2c(C(N)=O)ncn2c1=O`, the viability, T/C (compound 1 µM) is reported as 101% [middle of 10 runs], the viability, T/C (compound 3.16 µM) is reported as 101% [middle of 10 runs] and the viability, T/C (compound 10 µM) is reported as 100% [middle of 10 runs]. For the same molecule, the viability, T/C (compound 31.6 µM) was 102% [middle of 10 runs], the viability, T/C (compound 100 µM) was 103% [middle of 10 runs] and the IC50 (compound alone, run of 10/17/2019) was over 100 µM.
`COc1cc(C)[nH]c(=O)c1CN1CCc2c(Cl)cc(C(OC)C3COC3)c(Cl)c2C1=O` (stereo unspecified) + Cn1nnc2c(C(N)=O)ncn2c1=O showed an IC50 (curve of first compound, second compound 1 µM) of over 10 µM, an IC50 (curve of first compound, second compound 3.16 µM) of over 10 µM and an IC50 (curve of first compound, second compound 10 µM) of over 10 µM. For the same molecule, the IC50 (curve of first compound, second compound 31.6 µM) was over 10 µM, the IC50 (curve of first compound, second compound 100 µM) was over 10 µM and the viability, T/C (second compound 1 µM, first compound 0.0316 µM) was 102%. The viability, T/C (second compound 1 µM, first compound 0.1 µM) was 99.6%, the viability, T/C (second compound 1 µM, first compound 0.316 µM) was 92.1% and the viability, T/C (second compound 1 µM, first compound 1 µM) was 90.6%. The viability, T/C (second compound 1 µM, first compound 3.16 µM) was 83.7%, the viability, T/C (second compound 1 µM, first compound 10 µM) was 79.4% and the viability, T/C (second compound 3.16 µM, first compound 0.0316 µM) was 103%. For the same molecule, the viability, T/C (second compound 3.16 µM, first compound 0.1 µM) was 98.5%, the viability, T/C (second compound 3.16 µM, first compound 0.316 µM) was 95.7% and the viability, T/C (second compound 3.16 µM, first compound 1 µM) was 84.2%. The viability, T/C (second compound 3.16 µM, first compound 3.16 µM) was 84%, the viability, T/C (second compound 3.16 µM, first compound 10 µM) was 83.6% and the viability, T/C (second compound 10 µM, first compound 0.0316 µM) was 98.7%. For the same molecule, the viability, T/C (second compound 10 µM, first compound 0.1 µM) was 96.7%, the viability, T/C (second compound 10 µM, first compound 0.316 µM) was 92.3% and the viability, T/C (second compound 10 µM, first compound 1 µM) was 95.1%. It also gave a viability, T/C (second compound 10 µM, first compound 3.16 µM) of 85%, a viability, T/C (second compound 10 µM, first compound 10 µM) of 81.9% and a viability, T/C (second compound 31.6 µM, first compound 0.0316 µM) of 104%. The viability, T/C (second compound 31.6 µM, first compound 0.1 µM) was 98.5%, the viability, T/C (second compound 31.6 µM, first compound 0.316 µM) was 93.4% and the viability, T/C (second compound 31.6 µM, first compound 1 µM) was 93.3%. It also gave a viability, T/C (second compound 31.6 µM, first compound 3.16 µM) of 84.8%, a viability, T/C (second compound 31.6 µM, first compound 10 µM) of 78.4% and a viability, T/C (second compound 100 µM, first compound 0.0316 µM) of 99%. For the same molecule, the viability, T/C (second compound 100 µM, first compound 0.1 µM) was 98.7%, the viability, T/C (second compound 100 µM, first compound 0.316 µM) was 96.3% and the viability, T/C (second compound 100 µM, first compound 1 µM) was 87.4%. The viability, T/C (second compound 100 µM, first compound 3.16 µM) was 87% and the viability, T/C (second compound 100 µM, first compound 10 µM) was 81.8%.
